Laboratory results taken from ChEMBL document CHEMBL1131979, “Synthesis and SAR studies of 1-substituted-n-(4-alkoxycarbonylpiperidin-1-yl)alkanes as potent antiarrhythmic agents” (Bioorg Med Chem Lett, 1999).
Calls of active or inactive are those of the source. No cut-off for these calls is given here.

How the values were obtained:
Cavia porcellus [1] = experiment: Appearance of ectopic beat (EA) in guinea pig tested for in vivo antiarrhythmic activity against ouabain induced cardiac arrhythmias at a dose of 10 mg/kg by iv administration; format: functional, Heart
Cavia porcellus [2] = experiment: Appearance of ectopic beat (EA) in guinea pig tested for in vivo antiarrhythmic activity against ouabain induced cardiac arrhythmias at a dose of 20 mg/kg by po administration; format: functional, Heart
Cavia porcellus [3] = experiment: Cardiac arrest(CA) in guinea pig tested for in vivo antiarrhythmic activity against ouabain induced cardiac arrhythmias at a dose of 10 mg/kg by iv administration; format: functional, Heart
Rattus norvegicus [4] = experiment: Ventricular tachycardia (VT) in rats tested for in vivo Antiarrhythmic activity against aconitine induced arrhythmias at a dose of 25 mg/kg by po administration; format: functional, Heart
Cavia porcellus [5] = experiment: Ventricular fibrillation (VF) in guinea pig tested for in vivo antiarrhythmic activity against ouabain induced cardiac arrhythmias at a dose of 10 mg/kg by iv administration; format: functional, Heart
Cavia porcellus [6] = experiment: Change in heart rate(HR) in guinea pig tested for in vivo antiarrhythmic activity against ouabain induced cardiac arrhythmias at a dose of 10 mg/kg by iv administration; value ranges from 17-30%; format: functional
Rattus norvegicus [7] = experiment: Appearance of ectopic beat (EA) in rats tested for in vivo Antiarrhythmic activity against aconitine induced arrhythmias at a dose of 10 mg/kg by iv administration; format: functional, Heart
Rattus norvegicus [8] = experiment: Ventricular fibrillation (VF) in rats tested for in vivo Antiarrhythmic activity against aconitine induced arrhythmias at a dose of 25 mg/kg by po administration; format: functional, Heart
Cavia porcellus [9] = experiment: Change in heart rate(HR) in guinea pig tested for in vivo antiarrhythmic activity against ouabain induced cardiac arrhythmias at a dose of 20 mg/kg by po administration; value ranges from 10-35%; format: functional
Rattus norvegicus [10] = experiment: Cardiac arrest(CA) in rats tested for in vivo Antiarrhythmic activity against aconitine induced arrhythmias at a dose of 10 mg/kg by iv administration; format: functional, Heart
Rattus norvegicus [11] = experiment: Change in heart rate(HR) in rats tested for in vivo antiarrhythmic activity against aconitine induced arrhythmia at a dose of 10 mg/kg by iv administration; value ranges from 16-34; format: functional
Rattus norvegicus [12] = experiment: Change in heart rate(HR) in rats tested for in vivo antiarrhythmic activity against aconitine induced arrhythmias at a dose of 25 mg/kg by po administration; value ranges from 16-34; format: functional
[13] = Lipophilicity was determined; format: physicochemical; conditions: octanol/water
Rattus norvegicus [14] = experiment: Ventricular fibrillation (VF) in rats tested for in vivo Antiarrhythmic activity against aconitine induced arrhythmias at a dose of 10 mg/kg by iv administration; format: functional, Heart
Cavia porcellus [15] = experiment: Ventricular fibrillation (VF) in guinea pig tested for in vivo antiarrhythmic activity against ouabain induced cardiac arrhythmias at a dose of 20 mg/kg by po administration; format: functional, Heart
Cavia porcellus [16] = species: Cavia porcellus; experiment: Antiarrhythmic effect expressed as percent reduction of the maximal rate of stimulation for antiarrhythmic activity in guinea pig auricle at 8 uM; format: functional, Heart
Rattus norvegicus [17] = experiment: Ventricular tachycardia (VT) in rats tested for in vivo Antiarrhythmic activity against aconitine induced arrhythmias at a dose of 10 mg/kg by iv administration; format: functional, Heart
Rattus norvegicus [18] = experiment: Appearance of ectopic beat (EA) in rats tested for in vivo Antiarrhythmic activity against aconitine induced arrhythmias at a dose of 25 mg/kg by po administration; format: functional, Heart
Cavia porcellus [19] = experiment: Cardiac arrest(CA) in […] guinea pig tested for in vivo antiarrhythmic activity against ouabain induced cardiac arrhythmias at a dose of 20 mg/kg by po administration; format: functional, Heart
Rattus norvegicus [20] = experiment: Cardiac arrest(CA) in rats tested for in vivo Antiarrhythmic activity against aconitine induced arrhythmias at a dose of 25 mg/kg by po administration; format: functional, Heart
Cavia porcellus [21] = experiment: Change in heart rate(HR) in guinea pig tested for in vivo antiarrhythmic activity against ouabain induced cardiac arrhythmias at a dose of 20 mg/kg by po administration; value ranges from 18-27%; format: functional
Rattus norvegicus [22] = experiment: Change in heart rate(HR) in rats tested for in vivo antiarrhythmic activity against aconitine induced arrhythmias at a dose of 25 mg/kg by po administration; value ranges from 11-17%; format: functional
Rattus norvegicus [23] = experiment: Change in heart rate(HR) in rats tested for in vivo antiarrhythmic activity against aconitine induced arrhythmias at a dose of 10 mg/kg by iv administration; value ranges from 18-30%; format: functional
Cavia porcellus [24] = experiment: Change in heart rate(HR) in guinea pig tested for in vivo antiarrhythmic activity against ouabain induced cardiac arrhythmias at a dose of 10 mg/kg by iv administration; value ranges from 17-18%; format: functional
Cavia porcellus [25] = species: Cavia porcellus; experiment: Antiarrhythmic effect expressed as percent reduction of the maximal rate of stimulation for antiarrhythmic activity in guinea pig auricle at 8 uM; NS means not significant; format: functional; conditions: Heart

COC(=O)C1CCN(CCCC(=O)c2ccc(F)cc2)CC1
Amount of Ouabain used (Cavia porcellus [1]): 101.35 | Amount of Ouabain used (Cavia porcellus [2]): 124.56 | Amount of Ouabain used (Cavia porcellus [3]): 175.76 | Amount of Acotine used (Rattus norvegicus [4]): 226.74 | Amount of Ouabain used (Cavia porcellus [5]): 138.04 | Change in heart rate (Cavia porcellus [6]): 17% | Amount of Acotine used (Rattus norvegicus [7]): 132.79 | Amount of Acotine used (Rattus norvegicus [8]): 356.09 | Change in heart rate (Cavia porcellus [9]): 10% | Amount of Acotine used (Rattus norvegicus [10]): 544.28 | Change in heart rate (Rattus norvegicus [11]): 16% | Change in heart rate (Rattus norvegicus [12]): 16% | Log P/(100-P) [13]: -0.493 | Amount of Acotine used (Rattus norvegicus [14]): 373.36 | Amount of Ouabain used (Cavia porcellus [15]): 153.65 | Inhibition (Cavia porcellus [16]): 24.33% | Amount of Acotine used (Rattus norvegicus [17]): 231.27 | Amount of Acotine used (Rattus norvegicus [18]): 159.29 | Amount of Ouabain used (Cavia porcellus [19]): 187.05 | Amount of Acotine used (Rattus norvegicus [20]): 457.72

CCOC(=O)C1CCN(CCCC(=O)c2ccc(F)cc2)CC1
Log P/(100-P) [13]: -0.462 | Inhibition (Cavia porcellus [16]): 25.66%

COC(=O)C1CCN(CCC(=O)N2CCN(c3ccc(F)cc3)CC2)CC1
Log P/(100-P) [13]: -0.954 | Inhibition (Cavia porcellus [16]): 10%

C=C[C@H]1CN2CC[C@H]1C[C@@H]2[C@@H](O)c1ccnc2ccc(OC)cc12.C=C[C@H]1CN2CC[C@H]1C[C@@H]2[C@@H](O)c1ccnc2ccc(OC)cc12.O.O.O=S(=O)(O)O [QUINIDINE SULFATE]
Amount of Ouabain used (Cavia porcellus [1]): 128.33 | Amount of Ouabain used (Cavia porcellus [2]): 138.99 | Amount of Ouabain used (Cavia porcellus [3]): 187.59 | Change in heart rate (Cavia porcellus [21]): 18% | Amount of Acotine used (Rattus norvegicus [4]): 237.02 | Amount of Ouabain used (Cavia porcellus [5]): 167.78 | Amount of Acotine used (Rattus norvegicus [7]): 156.24 | Amount of Acotine used (Rattus norvegicus [8]): 416.36 | Amount of Acotine used (Rattus norvegicus [10]): 523.64 | Change in heart rate (Rattus norvegicus [22]): 11% | Amount of Acotine used (Rattus norvegicus [14]): 370 | Amount of Ouabain used (Cavia porcellus [15]): 201.34 | Inhibition (Cavia porcellus [16]): 29.68% | Amount of Acotine used (Rattus norvegicus [17]): 252.72 | Amount of Acotine used (Rattus norvegicus [18]): 173.66 | Change in heart rate (Rattus norvegicus [23]): 18% | Amount of Ouabain used (Cavia porcellus [19]): 225.31 | Amount of Acotine used (Rattus norvegicus [20]): 581.06 | Change in heart rate (Cavia porcellus [24]): 17%

COC(=O)C1CCN(CCCN2CCN(c3ccc(F)cc3)CC2)CC1
inhibition (Cavia porcellus [25]): inactive

CC(C)OC(=O)C1CCN(CCCC(=O)c2ccc(F)cc2)CC1
Log P/(100-P) [13]: -0.865 | Inhibition (Cavia porcellus [16]): 12%

COC(=O)C1CCN(CCCN2CCN(c3ccccc3)CC2)CC1
Log P/(100-P) [13]: -1.195 | Inhibition (Cavia porcellus [16]): 6%

COC(=O)C1CCN(CCCN2CCN(c3ccccn3)CC2)CC1
inhibition (Cavia porcellus [25]): inactive

COC(=O)C1CCN(CCCOc2cccc(NC(C)=O)c2)CC1
Log P/(100-P) [13]: -1.123 | Inhibition (Cavia porcellus [16]): 7%

CCCOC(=O)C1CCN(CCCC(=O)c2ccc(F)cc2)CC1
Log P/(100-P) [13]: -0.954 | Inhibition (Cavia porcellus [16]): 10%
